Activity, inhibition and EC50 data for one compound are collected here from ChEMBL document CHEMBL4196016, “Regioselective synthesis of 7-O-esters of the flavonolignan silibinin and SARs lead to compounds with overadditive neuroprotective effects” (Eur J Med Chem, 2018).

Calls of active or inactive are those of the source. The rule behind the calls is not given here. A value given as a limit tells only on which side of the number the result lay.

Data set [1] is described as follows: Antioxidant activity assessed as reduction of Fe3+-TPTZ to Fe2+-TPTZ using 1:1 test compound to ferulic acid ratio measured every 15 secs for 4 mins by FRAP assay. It is filed as functional.
The test system of the next data set is PC-12. Nature of the data set: Induction of rat PC12 cells differentiation assessed as neurite outgrowth at 10 uM after 24 hrs relative to control. Type of data set: functional.
The target of data set [2] is T1, Microtubule-associated protein tau (Homo sapiens, UniProt P10636). Nature of the data set: Inhibition of tau (unknown origin) aggregation expressed in Escherichia coli (DE3) at 10 uM incubated for overnight by Th-S fluorescence staining based UV-Vis spectrophotometer (reference value: 0.0 +/- 1.4%).
Data set [3] addresses T1, Microtubule-associated protein tau. Kind of data set: Inhibition of tau (unknown origin) aggregation expressed in Escherichia coli (DE3) at 100 uM incubated for overnight by Th-S fluorescence staining based UV-Vis spectrophotometer (reference value: 0.0 +/- 2.4%).
The target in data set [4] is T2, Amyloid-beta precursor protein (Homo sapiens, UniProt P05067). Kind of data set: Inhibition of amyloid beta 42 (unknown origin) expressed in Escherichia coli BL21 (DE3) aggregation at 100 uM incubated for overnight by Th-S fluorescence staining based UV-Vis spectrophotometer (reference value: 0 +/- 4.4%).
Data set [5] deals with HT-22. Kind of data set: Neuroprotective activity against glutamate-induced mouse HT22 cells assessed as increase in cell survival at 1 to 25 uM using 1:1 test compound to ferulic acid ratio cotreated with glutamate measured after 24 hrs by MTT assay. Type of data set: functional, cell-based.
Data set [6] concerns HT-22. Kind of data set: Neurotoxicity against mouse HT22 cells assessed as decrease in cell viability at 25 uM using 1:1 test compound to cinnamic acid ratio measured after 24 hrs by MTT assay. Type of data set: toxicity, cell-based. The following applies: ht-22, 24 h.
Data set [7] can be described thus: Antioxidant activity assessed as ferric ion reduction by measuring FeSO4 equivalents reducing Fe3+-TPTZ to Fe2+-TPTZ measured every 15 secs for 4 mins by FRAP assay. It is filed as functional.
Data set [8] deals with HT-22. Nature of the data set: Neuroprotective activity against IAA-induced ischemia in mouse HT22 cells assessed as increase in cell viability cotreated with IAA for 2 hrs followed by IAA wash out measured after 24 hrs by MTT assay. It is filed as functional, cell-based.
Data set [9] has as its system HT-22. Nature of the data set: Neuroprotective activity against glutamate-induced mouse HT22 cells assessed as increase in cell survival at 1 to 25 uM cotreated with glutamate measured after 24 hrs by MTT assay. It is filed as functional, cell-based.
Data set [10] addresses T2, Amyloid-beta precursor protein. Kind of data set: Inhibition of amyloid beta 42 (unknown origin) expressed in Escherichia coli BL21 (DE3) aggregation at 10 uM incubated for overnight by Th-S fluorescence staining based UV-Vis spectrophotometer (reference value: 0 +/- 1%).
The test system of data set [11] is HT-22. Kind of data set: Neurotoxicity against mouse HT22 cells assessed as decrease in cell viability at 25 uM measured after 24 hrs by MTT assay. Type of data set: toxicity, cell-based. Particulars: ht-22, 24 h.
Data set [12] concerns HT-22. Nature of the data set: Neurotoxicity against mouse HT22 cells assessed as decrease in cell viability at 25 uM using 1:1 test compound to ferulic acid ratio measured after 24 hrs by MTT assay. The following applies: ht-22, 24 h. It is filed as toxicity, cell-based.
The nature of data set [13]: Antioxidant activity assessed as reduction of Fe3+-TPTZ to Fe2+-TPTZ using equimolar mixture of test compound and cinnamic acid measured every 15 secs for 4 mins by FRAP assay. Type of data set: functional.
In the next data set the test system is BV-2. Nature of the data set: Antiinflammatory activity in mouse BV2 cells assessed as inhibition of LPS-induced microglial activation after 24 hrs by Griess reagent based assay. Type of data set: functional, cell-based. The following applies: BV-2, 24 h.

T2 sequence (P05067 whole entry): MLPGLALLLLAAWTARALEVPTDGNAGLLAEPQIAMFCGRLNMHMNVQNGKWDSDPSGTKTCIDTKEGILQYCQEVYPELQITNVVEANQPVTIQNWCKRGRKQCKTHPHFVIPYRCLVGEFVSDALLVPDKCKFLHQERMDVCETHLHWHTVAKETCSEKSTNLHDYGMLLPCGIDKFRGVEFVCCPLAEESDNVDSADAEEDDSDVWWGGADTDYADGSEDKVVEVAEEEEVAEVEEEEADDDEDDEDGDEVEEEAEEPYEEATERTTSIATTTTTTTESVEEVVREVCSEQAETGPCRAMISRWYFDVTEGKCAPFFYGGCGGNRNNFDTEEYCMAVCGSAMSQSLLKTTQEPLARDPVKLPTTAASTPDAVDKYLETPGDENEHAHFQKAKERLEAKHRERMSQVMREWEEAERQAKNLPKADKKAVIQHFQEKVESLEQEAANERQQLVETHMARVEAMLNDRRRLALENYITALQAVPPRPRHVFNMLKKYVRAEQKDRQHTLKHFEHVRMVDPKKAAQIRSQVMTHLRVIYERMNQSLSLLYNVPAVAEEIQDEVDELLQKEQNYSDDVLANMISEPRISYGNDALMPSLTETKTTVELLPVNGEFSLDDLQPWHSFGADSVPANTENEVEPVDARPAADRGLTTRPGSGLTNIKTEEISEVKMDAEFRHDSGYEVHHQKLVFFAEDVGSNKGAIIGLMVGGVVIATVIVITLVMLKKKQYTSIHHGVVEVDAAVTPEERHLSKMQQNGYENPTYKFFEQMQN
T1 sequence (P10636 whole entry): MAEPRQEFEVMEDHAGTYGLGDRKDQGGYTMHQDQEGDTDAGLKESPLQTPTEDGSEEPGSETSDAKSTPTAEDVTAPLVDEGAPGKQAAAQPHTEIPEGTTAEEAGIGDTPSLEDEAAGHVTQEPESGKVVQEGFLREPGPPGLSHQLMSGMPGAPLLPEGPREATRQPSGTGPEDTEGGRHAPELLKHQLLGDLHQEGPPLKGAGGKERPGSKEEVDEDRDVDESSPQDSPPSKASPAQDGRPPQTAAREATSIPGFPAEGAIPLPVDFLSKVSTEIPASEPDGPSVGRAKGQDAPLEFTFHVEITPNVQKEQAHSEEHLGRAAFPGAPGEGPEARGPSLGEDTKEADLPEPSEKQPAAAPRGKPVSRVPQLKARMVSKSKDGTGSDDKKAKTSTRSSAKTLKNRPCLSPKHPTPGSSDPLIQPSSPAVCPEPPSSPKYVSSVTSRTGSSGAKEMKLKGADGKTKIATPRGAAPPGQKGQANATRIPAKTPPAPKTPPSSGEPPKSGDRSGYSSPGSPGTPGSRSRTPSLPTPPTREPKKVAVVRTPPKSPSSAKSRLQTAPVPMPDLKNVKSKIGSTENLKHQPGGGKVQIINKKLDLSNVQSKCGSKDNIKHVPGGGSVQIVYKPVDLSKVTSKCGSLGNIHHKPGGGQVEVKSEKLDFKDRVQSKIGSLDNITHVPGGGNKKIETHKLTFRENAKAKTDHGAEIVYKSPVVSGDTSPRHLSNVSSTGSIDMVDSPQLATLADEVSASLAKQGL

As for `COc1cc(C2Oc3cc([C@H]4Oc5cc(O)cc(O)c5C(=O)[C@@H]4O)ccc3OC2CO)ccc1O` (stereo not given in full) [SILIBININ], the outcome in data set [1] and in data set [13] was Active. For the same compound, the Activity was 38% in the data set with PC-12; “Toxic” in the data set on HT-22 [6]; 0.6 equiv in data set [7]; “Non-Toxic” in the data set on HT-22 [11]; “Toxic” with HT-22 [12]. Further, the inhibition in [2] worked out at 2%; in data set [3] it was 10.1%; in data set [4], 16%; in [10], 4.8%. Besides, the result with HT-22 [5] and in the data set on HT-22 [9] was inactive. Further, the EC50 with HT-22 [8] and in the data set with BV-2 was > 10 µM each time.
